Experiments:
Experiment in all cases: cAMP accumulation assay, GLP-1R WT, mutant or modified constructs
Type in all cases: cell-based
Set-up in all cases: Flag; expressed in transfected cells; host or cells: HEK293T
GLP-1R [1] = molecular target: GLP-1R (Homo sapiens, UniProt P43220, D198A); conditions: GLP-1R D198A, HEK293T
Procedure, shortened: (§1)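 HEK293T cells transiently expressing wild-type, mutant or modified human GLP-1R (HA signal peptide constructs) were used. Cells were stimulated with peptide agonists for 40 min at room temperature in HBSS with 0.5 mM IBMX and 0.1% BSA or casein. cAMP was quantified by LANCE Ultra TR-FRET (620/650 nm).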

GLP-1R [2] = molecular target: GLP-1R (Homo sapiens, UniProt P43220, D198A/K202A/Y145A); conditions: GLP-1R Y145A/D198A/K202A, HEK293T
Procedure, shortened: as §1

GLP-1R [3] = molecular target: GLP-1R (Homo sapiens, UniProt P43220, K202A); conditions: GLP-1R K202A, HEK293T
Procedure, shortened: as §1

GLP-1R [4] = molecular target: GLP-1R (Homo sapiens, UniProt P43220, Q210A); conditions: GLP-1R Q210A, HEK293T
Procedure, shortened: as §1

GLP-1R [5] = molecular target: GLP-1R (Homo sapiens, UniProt P43220, R134A); conditions: GLP-1R R134A, HEK293T
Procedure, shortened: as §1

GLP-1R [6] = molecular target: GLP-1R (Homo sapiens, UniProt P43220, W39A); conditions: HEK-293T, GLP-1R W39A; HEK293T
Procedure, shortened: as §1

GLP-1R [7] = molecular target: GLP-1R (Homo sapiens, UniProt P43220, W91A); conditions: GLP-1R W91A, HEK293T
Procedure, shortened: as §1

GLP-1R [8] = molecular target: GLP-1R (Homo sapiens, UniProt P43220, Y205A); conditions: GLP-1R Y205A, HEK293T
Procedure, shortened: as §1

[9] = read-out: cAMP pEC50 (converted)

Chain of GLP-1R (Homo sapiens, UniProt P43220, W91A) (P43220 24-463 W91A): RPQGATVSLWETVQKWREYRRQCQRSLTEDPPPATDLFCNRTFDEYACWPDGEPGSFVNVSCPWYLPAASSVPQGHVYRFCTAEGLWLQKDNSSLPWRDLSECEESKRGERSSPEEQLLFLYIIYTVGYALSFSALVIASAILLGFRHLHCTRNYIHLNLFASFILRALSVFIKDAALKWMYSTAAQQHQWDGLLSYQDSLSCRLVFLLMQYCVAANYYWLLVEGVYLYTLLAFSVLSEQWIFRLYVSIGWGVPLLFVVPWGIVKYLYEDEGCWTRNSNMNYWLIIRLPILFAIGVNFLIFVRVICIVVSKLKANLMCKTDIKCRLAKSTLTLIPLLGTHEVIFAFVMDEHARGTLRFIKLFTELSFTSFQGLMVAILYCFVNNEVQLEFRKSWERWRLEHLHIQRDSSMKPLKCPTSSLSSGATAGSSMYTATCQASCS
Chain of GLP-1R (Homo sapiens, UniProt P43220, Y205A) (P43220 24-463 Y205A): as the sequence (P43220 24-463 W91A) above, with A68W, Y182A counted along it
Chain of GLP-1R (Homo sapiens, UniProt P43220, D198A/K202A/Y145A) (P43220 24-463 Y145A/D198A/K202A): as the sequence (P43220 24-463 W91A) above, with A68W, Y122A, D175A, K179A counted along it
Chain of GLP-1R (Homo sapiens, UniProt P43220, K202A) (P43220 24-463 K202A): as the sequence (P43220 24-463 W91A) above, with A68W, K179A counted along it
Chain of GLP-1R (Homo sapiens, UniProt P43220, D198A) (P43220 24-463 D198A): as the sequence (P43220 24-463 W91A) above, with A68W, D175A counted along it
Chain of GLP-1R (Homo sapiens, UniProt P43220, R134A) (P43220 24-463 R134A): as the sequence (P43220 24-463 W91A) above, with A68W, R111A counted along it
Chain of GLP-1R (Homo sapiens, UniProt P43220, Q210A) (P43220 24-463 Q210A): as the sequence (P43220 24-463 W91A) above, with A68W, Q187A counted along it
Chain of GLP-1R (Homo sapiens, UniProt P43220, W39A) (P43220 24-463 W39A): as the sequence (P43220 24-463 W91A) above, with W16A, A68W counted along it

CCCCCCCCCCCCCCCC(=O)N[C@@H](CCC(=O)NCCCC[C@H](NC(=O)[C@H](CC(=O)O)NC(=O)[C@H](CO)NC(=O)[C@@H](NC(=O)[C@H](Cc1ccccc1)NC(=O)[C@@H](NC(=O)CNC(=O)[C@H](CCC(N)=O)NC(=O)C(C)(C)NC(=O)[C@@H](N)Cc1c[nH]cn1)[C@@H](C)O)[C@@H](C)O)C(=O)N[C@@H](CO)C(=O)N[C@@H](CCCCN)C(=O)N[C@@H](Cc1ccc(O)cc1)C(=O)N[C@@H](CC(C)C)C(=O)N[C@@H](CC(=O)O)C(=O)N[C@@H](CCC(=O)O)C(=O)N[C@@H](CCCNC(=N)N)C(=O)N[C@@H](C)C(=O)N[C@@H](C)C(=O)N[C@@H](CCC(N)=O)C(=O)N[C@@H](CC(=O)O)C(=O)N[C@@H](Cc1ccccc1)C(=O)N[C@H](C(=O)N[C@@H](CCC(N)=O)C(=O)N[C@@H](Cc1c[nH]c2ccccc12)C(=O)N[C@@H](CC(C)C)C(=O)N[C@@H](CC(C)C)C(=O)N[C@@H](CC(=O)O)C(=O)NCC(=O)NCC(=O)N1CCC[C@H]1C(=O)N[C@@H](CO)C(=O)N[C@@H](CO)C(=O)NCC(=O)N[C@@H](C)C(=O)N1CCC[C@H]1C(=O)N1CCC[C@H]1C(=O)N1CCC[C@H]1C(=O)N[C@@H](CO)C(N)=O)C(C)C)C(=O)O [Peptide 20]
EC50 (GLP-1R [1]; [9]): 4.47 pM
Emax (GLP-1R [1]; HEK-293T): 99.9 ± 1.82%
EC50 (GLP-1R [2]; [9]): 38.9 pM
Emax (GLP-1R [2]; HEK-293T): 99.9 ± 1.67%
EC50 (GLP-1R [3]; [9]): 2.57 pM
Emax (GLP-1R [3]; HEK-293T): 100 ± 1.97%
EC50 (GLP-1R [4]; [9]): 5.62 pM
Emax (GLP-1R [4]; HEK-293T): 102 ± 1.27%
EC50 (GLP-1R [5]; [9]): 6.61 pM
Emax (GLP-1R [5]; HEK-293T): 101 ± 1.08%
Emax (GLP-1R [6]): 100 ± 1.04%
EC50 (GLP-1R [7]; [9]): 6.03 pM
Emax (GLP-1R [7]; HEK-293T): 100 ± 1.33%
EC50 (GLP-1R [8]; [9]): 8.51 pM
Emax (GLP-1R [8]; HEK-293T): 101 ± 1.08%

Source: article PMC8881610 (Nature Communications, 2022)
